Measurements as given in ChEMBL document CHEMBL1136599, “Design, synthesis, and structure-activity relationships of substituted piperazinone-based transition state factor Xa inhibitors” (Bioorg Med Chem Lett, 2003).

What was measured:
Coagulation factor X = Coagulation factor X (Homo sapiens, UniProt P00742); assay: In vitro inhibitory activity against factor Xa
Prothrombin = Prothrombin (Homo sapiens, UniProt P00734); assay: In vitro inhibitory activity against serine protease thrombin

Coagulation factor X, sequence (P00742 41-179 limits assumed): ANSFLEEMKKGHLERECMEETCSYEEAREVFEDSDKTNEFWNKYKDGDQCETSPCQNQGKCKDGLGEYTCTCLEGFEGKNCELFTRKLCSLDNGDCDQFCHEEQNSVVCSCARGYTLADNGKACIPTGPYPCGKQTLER
Coagulation factor X, sequence (P00742 235-488 limits assumed): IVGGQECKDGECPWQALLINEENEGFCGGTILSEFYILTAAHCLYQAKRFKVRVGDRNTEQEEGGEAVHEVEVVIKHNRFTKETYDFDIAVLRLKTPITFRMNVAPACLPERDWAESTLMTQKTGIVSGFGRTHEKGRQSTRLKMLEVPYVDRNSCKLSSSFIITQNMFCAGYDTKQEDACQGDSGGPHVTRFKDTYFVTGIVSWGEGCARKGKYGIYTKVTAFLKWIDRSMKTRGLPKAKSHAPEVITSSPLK

Row | Compound | IC50 (Coagulation factor X) [nM] | IC50 (Prothrombin) [nM]
1 | N=C(N)NCCC[C@H](NC(=O)CN1C=CN[C@@H](CCCNC(=N)N)C1=O)C(=O)c1nccs1 | 307 | 140000
2 | N=C(N)NCCC[C@H](NC(=O)CN1CCN(S(=O)(=O)Cc2ccccc2)[C@H](CC(=O)O)C1=O)C(=O)c1nccs1 | 31 | 40000
3 | N=C(N)NCCC[C@H](NC(=O)CN1CCN(S(=O)(=O)Cc2ccccc2)[C@H](CCCNC(=N)N)C1=O)C(=O)c1nccs1 | 13 | 3000
4 | N=C(N)NCCC[C@H](NC(=O)CN1CCN(S(=O)(=O)Cc2ccccc2)[C@@H](CC(=O)O)C1=O)C(=O)c1nccs1 | 370 | 325000
5 | CS(=O)(=O)N1CCN(CC(=O)N[C@@H](CCCN=C(N)N)C(=O)c2nccs2)C(=O)[C@H]1Cc1ccccc1 | 144 | 2000
6 | N=C(N)NCCC[C@@H](NS(=O)(=O)Cc1ccccc1)C(=O)NC(=O)CN[C@H](CCCNC(=N)N)C(=O)c1nccs1 | 13 | –
7 | COC(=O)C[C@H]1C(=O)N(CC(=O)N[C@@H](CCCNC(=N)N)C(=O)c2nccs2)CCN1S(=O)(=O)Cc1ccccc1 | 85 | 1000
8 | N=C(N)NCCC[C@H](NC(=O)CN1CCN(S(=O)(=O)Cc2ccccc2)[C@H](Cc2ccccc2)C1=O)C(=O)c1nccs1 | 59 | 2000
9 | N=C(N)NCCC[C@H](NC(=O)CN1CCN(S(=O)(=O)Cc2ccccc2)[C@H](CC(=O)N2CCCCC2)C1=O)C(=O)c1nccs1 | 37 | 8000
10 | N=C(N)NCCC[C@H](NC(=O)CN1CCN(S(=O)(=O)Cc2ccccc2)[C@@H](CC(=O)N2CCCCC2)C1=O)C(=O)c1nccs1 | 154 | 60000
11 | CCOC(=O)C[C@H]1C(=O)N(CC(=O)N[C@@H](CCCN=C(N)N)C(=O)c2nccs2)CCN1S(=O)(=O)Cc1ccccc1 | 32 | 4000
12 | N=C(N)NCCC[C@H](NC(=O)CN1CCN[C@@H](CCCNC(=N)N)C1=O)C(=O)c1nccs1 | 20 | 12000
13 | CS(=O)(=O)N1CCN(CC(=O)N[C@@H](CCCNC(=N)N)C(=O)c2nccs2)C(=O)[C@@H]1Cc1ccccc1 | 459 | 642
14 | N=C(N)NCCC[C@H](NC(=O)CN1CCN[C@@H](Cc2ccccc2)C1=O)C(=O)c1nccs1 | 888 | 2000
15 | N=C(N)NCCC[C@H](NC(=O)CN1CCN[C@H](Cc2ccccc2)C1=O)C(=O)c1nccs1 | – | 22000
16 | N=C(N)NCCC[C@H](NC(=O)CN1CC(=O)N[C@@H](CCCNC(=N)N)C1=O)C(=O)c1nccs1 | 11 | 150000
17 | N=C(N)NCCC[C@H](NC(=O)CN1CC(=O)N[C@H](CCCNC(=N)N)C1=O)C(=O)c1nccs1 | 21 | 200000

Continued by falling IC50 (Coagulation factor X), values first:

Row | IC50 (Coagulation factor X) [nM] | IC50 (Prothrombin) [nM] | Compound
18 | 8 | 5000 | COC(=O)C[C@@H]1C(=O)N(CC(=O)N[C@@H](CCCNC(=N)N)C(=O)c2nccs2)CCN1S(=O)(=O)Cc1ccccc1
19 | 7 | 3000 | CCOC(=O)C[C@@H]1C(=O)N(CC(=O)N[C@@H](CCCN=C(N)N)C(=O)c2nccs2)CCN1S(=O)(=O)Cc1ccccc1
20 | 6 | 2000 | N=C(N)NCCC[C@H](NC(=O)CN1CCN(S(=O)(=O)Cc2ccccc2)[C@H](CO)C1=O)C(=O)c1nccs1
21 | 4 | 3000 | N=C(N)NCCC[C@H](NC(=O)CN1CCN(S(=O)(=O)Cc2ccccc2)[C@H](CCC(=O)N2CCCCC2)C1=O)C(=O)c1nccs1
22 | 4 | – | N=C(N)NCCCC(NC(=O)CN1CCN(S(=O)(=O)Cc2ccccc2)CC1=O)C(=O)c1nccs1 (stereo not given)
23 | 4 | 5000 | N=C(N)NCCC[C@H](NC(=O)CN1CCN(S(=O)(=O)Cc2ccccc2)[C@H](CCC(=O)O)C1=O)C(=O)c1nccs1
24 | 3 | 12000 | N=C(N)NCCC[C@H](NC(=O)CN1CCN(S(=O)(=O)Cc2ccccc2)[C@@H](CCCNC(=N)N)C1=O)C(=O)c1nccs1
25 | 2 | – | N=C(N)NCCCC(NC(=O)CNC(=O)[C@@H](Cc1ccccc1)NS(=O)(=O)Cc1ccccc1)C(=O)c1nccs1 (stereo not given in full)
26 | 1 | 2000 | COC(=O)CC[C@@H]1C(=O)N(CC(=O)N[C@@H](CCCNC(=N)N)C(=O)c2nccs2)CCN1S(=O)(=O)Cc1ccccc1
27 | 0.9 | 507 | N=C(N)NCCC[C@H](NC(=O)CN1CCN(S(=O)(=O)Cc2ccccc2)[C@@H](Cc2ccccc2)C1=O)C(=O)c1nccs1
